The numbers were not newly measured in PMC11975010 (Drug Design, Development and Therapy, 2025), which cites them from elsewhere.

Read-outs that look alike come from different tables or passages of the source.

The conditions of data set [1]: poor solubility in water and high permeability.
For data set [2] the following is noted: at 25 °C.
Test in data set [3]: not given
The source holds these as a separate data set.

For data set [4] the following is noted: administered as HP-β-CD complex formulation.

Turning to `COc1ccc(CN=c2[nH]c(N3CCC[C@H]3CO)ncc2C(=O)NCc2ncccn2)cc1Cl` [AVA, Avanafil], the Action duration entry is “up to 12 hours”. The “Biopharmaceutical Classification System class” value in data set [1] is “class II”. For the compound `CC(O)COC[C@H]1O[C@@H]2O[C@H]3[C@H](O)[C@@H](O)[C@@H](O[C@H]4[C@H](O)[C@@H](O)[C@@H](O[C@H]5[C@H](O)[C@@H](O)[C@@H](O[C@H]6[C@H](O)[C@@H](O)[C@@H](O[C@H]7[C@H](O)[C@@H](O)[C@@H](O[C@H]8[C@H](O)[C@@H](O)[C@@H](O[C@H]1[C@H](O)[C@H]2O)O[C@@H]8COCC(C)O)O[C@@H]7COCC(C)O)O[C@@H]6COCC(C)O)O[C@@H]5COCC(C)O)O[C@@H]4COCC(C)O)O[C@@H]3COCC(C)O` (stereo partly drawn) [HP-β-CD, hydroxypropyl-beta-cyclodextrin], the Aqueous solubility entry in data set [2] is “approximately 600 mg/mL”. Consider `CC[C@@]1(O)C(=O)OCc2c1cc1n(c2=O)Cc2cc3ccccc3nc2-1` [camptothecin], for which the Lactone ring hydrolysis is 40% in data set [3] (before stabilization in HP-β-CD) and 6.7% in data set [3] (stabilized in HP-β-CD cavities). Consider `C[C@@H]1C[C@H]2[C@@H]3CCC4=CC(=O)C=C[C@]4(C)[C@@]3(F)[C@@H](O)C[C@]2(C)[C@@]1(O)C(=O)CO` [dexamethasone], for which the Clearance result in data set [4] is given as “lower clearance”.
